# Data as given in patent publication US12077503B2, “Substituted cyclic amides and their use as herbicides” (FMC CORPORATION, priority 2015, dated 2024).
# Tests used:
# Type in all cases: in vivo
# [1] = test system: ryegrass, Italian (Italian ryegrass, Lolium multiflorum); test: Test A preemergence; conditions: for Plant response rating, Ryegrass, Italian: 125 g ai/ha, preemergence, 0 to 100 scale (0 no effect, 100 complete control); for Ryegrass, Italian plant response rating (0 to 100 scale, 0 is no effect, 100 is complete control): Preemergence, 500 g ai/ha, visual injury approx. 10 d
# Procedure, shortened: (§1)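 Preemergence directed soil spray on seeded pots, or postemergence application to plants 2–10 cm, one- to two-leaf. Solvent mixture non-phytotoxic, with surfactant. Scored ~10 d later, visually, 0–100 vs untreated.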
# [2] = test system: ragweed (common ragweed, Ambrosia elatior); test: Test A preemergence; conditions: for Plant response rating, Ragweed: 125 g ai/ha, preemergence, 0 to 100 scale (0 no effect, 100 complete control); for Ragweed plant response rating (0 to 100 scale, 0 is no effect, 100 is complete control): Preemergence, 500 g ai/ha, visual injury approx. 10 d
# Procedure, shortened: as §1
# Kochia (Kochia scoparia) [3] = test: Test A preemergence; conditions: for Plant response rating, Kochia: 125 g ai/ha, preemergence, 0 to 100 scale (0 no effect, 100 complete control); for Kochia plant response rating (0 to 100 scale, 0 is no effect, 100 is complete control): Preemergence, 500 g ai/ha, visual injury approx. 10 d
# Procedure, shortened: as §1
# [4] = test system: pigweed (Amaranthus retroflexus); test: Test A preemergence; conditions: for Plant response rating, Pigweed: 125 g ai/ha, preemergence, 0 to 100 scale (0 no effect, 100 complete control); for Pigweed plant response rating (0 to 100 scale, 0 is no effect, 100 is complete control): Preemergence, 500 g ai/ha, visual injury approx. 10 d
# [5] = test system: giant foxtail (Setaria faberii); test: Test A preemergence; conditions: for Plant response rating, Foxtail, Giant: 125 g ai/ha, preemergence, 0 to 100 scale (0 no effect, 100 complete control); for Foxtail, Giant plant response rating (0 to 100 scale, 0 is no effect, 100 is complete control): Preemergence, 500 g ai/ha, visual injury approx. 10 d
# Procedure, shortened: as §1
# [6] = test system: barnyardgrass (Echinochloa crus-galli); test: Test A preemergence; conditions: for Plant response rating, Barnyardgrass: 125 g ai/ha, preemergence, 0 to 100 scale (0 no effect, 100 complete control); for Barnyardgrass plant response rating (0 to 100 scale, 0 is no effect, 100 is complete control): Preemergence, 500 g ai/ha, visual injury approx. 10 d
# Procedure, shortened: as §1
# [7] = test system: ducksalad (Heteranthera limosa); test: Test B flooded paddy test; conditions: Flood, 0 to 100 scale where 0 is no effect and 100 is complete control, 13 to 15 d
# Procedure, shortened: (§2)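 Flooding to 3 cm over soil accompanied treatment, which consisted of adding compound to the standing water around 2-leaf plants; depth was then maintained. Visual assessment versus controls followed at 13 to 15 d (scale 0–100, 0 meaning no effect).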
# [8] = test system: sedge, umbrella (small-flower umbrella sedge, Cyperus difformis); test: Test B flooded paddy test; conditions: Flood, 0 to 100 scale where 0 is no effect and 100 is complete control, 13 to 15 d
# Procedure, shortened: as §2
# rice (Oryra sativa) = test: Test B flooded paddy test; conditions: Flood, 0 to 100 scale where 0 is no effect and 100 is complete control, 13 to 15 d
# Procedure, shortened: as §2
# [9] = test system: barnyardgrass (Echinochloa crus-galli); test: Test B flooded paddy test; conditions: Flood, 0 to 100 scale where 0 is no effect and 100 is complete control, 13 to 15 d
# Procedure, shortened: as §2
# [10] = test system: ryegrass, Italian (Italian ryegrass, Lolium multiflorum); test: Test A postemergence; conditions: postemergence; for Ryegrass, Italian plant response rating: 125 g ai/ha, visual injury rating on 0 to 100 scale (0 no effect, 100 complete control), approx. 10 d; for Plant response rating, Ryegrass, Italian: 500 g ai/ha, 0 to 100 scale, 0 no effect, 100 complete control
# Procedure, shortened: as §1
# [11] = test system: ragweed (common ragweed, Ambrosia elatior); test: Test A postemergence; conditions: postemergence; for Ragweed plant response rating: 125 g ai/ha, visual injury rating on 0 to 100 scale (0 no effect, 100 complete control), approx. 10 d; for Plant response rating, Ragweed: 500 g ai/ha, 0 to 100 scale, 0 no effect, 100 complete control
# Procedure, shortened: as §1
# [12] = test system: Galium (catchweed bedstraw, Galium aparine); test: Test A postemergence; conditions: postemergence; for Galium plant response rating: 125 g ai/ha, visual injury rating on 0 to 100 scale (0 no effect, 100 complete control), approx. 10 d; for Plant response rating, Galium: 500 g ai/ha, 0 to 100 scale, 0 no effect, 100 complete control
# Procedure, shortened: as §1
# Kochia (Kochia scoparia) [13] = test: Test A postemergence; conditions: postemergence; for Kochia plant response rating: 125 g ai/ha, visual injury rating on 0 to 100 scale (0 no effect, 100 complete control), approx. 10 d; for Plant response rating, Kochia: 500 g ai/ha, 0 to 100 scale, 0 no effect, 100 complete control
# Procedure, shortened: as §1
# [14] = test system: wheat (Triticum aestivum); test: Test A postemergence; conditions: postemergence; for Wheat plant response rating: 125 g ai/ha, visual injury rating on 0 to 100 scale (0 no effect, 100 complete control), approx. 10 d; for Plant response rating, Wheat: 500 g ai/ha, 0 to 100 scale, 0 no effect, 100 complete control
# Procedure, shortened: as §1
# [15] = test system: pigweed (Amaranthus retroflexus); test: Test A postemergence; conditions: postemergence; for Pigweed plant response rating: 125 g ai/ha, visual injury rating on 0 to 100 scale (0 no effect, 100 complete control), approx. 10 d; for Plant response rating, Pigweed: 500 g ai/ha, 0 to 100 scale, 0 no effect, 100 complete control
# Procedure, shortened: as §1
# [16] = test system: blackgrass (Alopecurus myosuroides); test: Test A postemergence; conditions: postemergence; for Blackgrass plant response rating: 125 g ai/ha, visual injury rating on 0 to 100 scale (0 no effect, 100 complete control), approx. 10 d; for Plant response rating, Blackgrass: 500 g ai/ha, 0 to 100 scale, 0 no effect, 100 complete control
# Procedure, shortened: as §1
# corn (Zea mays) = test: Test A postemergence; conditions: postemergence; for Corn plant response rating: 125 g ai/ha, visual injury rating on 0 to 100 scale (0 no effect, 100 complete control), approx. 10 d; for Plant response rating, Corn: 500 g ai/ha, 0 to 100 scale, 0 no effect, 100 complete control
# Procedure, shortened: as §1
# [17] = test system: giant foxtail (Setaria faberii); test: Test A postemergence; conditions: postemergence; for Foxtail, Giant plant response rating: 125 g ai/ha, visual injury rating on 0 to 100 scale (0 no effect, 100 complete control), approx. 10 d; for Plant response rating, Foxtail, Giant: 500 g ai/ha, 0 to 100 scale, 0 no effect, 100 complete control
# Procedure, shortened: as §1
# [18] = test system: barnyardgrass (Echinochloa crus-galli); test: Test A postemergence; conditions: postemergence; for Barnyardgrass plant response rating: 125 g ai/ha, visual injury rating on 0 to 100 scale (0 no effect, 100 complete control), approx. 10 d; for Plant response rating, Barnyardgrass: 500 g ai/ha, 0 to 100 scale, 0 no effect, 100 complete control
# Procedure, shortened: as §1
Compound,"Plant response rating, Ryegrass, Italian [1]","Ryegrass, Italian plant response rating (0 to 100 scale, 0 is no effect, 100 is complete control) [1]","Plant response rating, Ragweed [2]","Ragweed plant response rating (0 to 100 scale, 0 is no effect, 100 is complete control) [2]","Plant response rating, Kochia (Kochia (Kochia scoparia) [3])","Kochia plant response rating (0 to 100 scale, 0 is no effect, 100 is complete control) (Kochia (Kochia scoparia) [3])","Plant response rating, Pigweed [4]","Pigweed plant response rating (0 to 100 scale, 0 is no effect, 100 is complete control) [4]","Plant response rating, Foxtail, Giant [5]","Foxtail, Giant plant response rating (0 to 100 scale, 0 is no effect, 100 is complete control) [5]","Plant response rating, Barnyardgrass [6]","Barnyardgrass plant response rating (0 to 100 scale, 0 is no effect, 100 is complete control) [6]","Ryegrass, Italian plant response rating [10]","Plant response rating, Ryegrass, Italian [10]",Ragweed plant response rating [11],"Plant response rating, Ragweed [11]",Galium plant response rating [12],"Plant response rating, Galium [12]",Kochia plant response rating (Kochia (Kochia scoparia) [13]),"Plant response rating, Kochia (Kochia (Kochia scoparia) [13])",other results
COc1ccc(NC(=O)C2C(=O)NCC2c2cccc(OC(F)F)c2)c(F)c1 (stereo not drawn) [Compound 425],0,0,0,0,0,0,0,0,40,70,0,20,0,0,0,0,0,0,0,0,"Plant response rating, Ducksalad ([7]; 500 g ai/ha): 30; Plant response rating, Sedge, Umbrella ([8]; 500 g ai/ha): 0; Plant response rating, Rice (rice (Oryra sativa); 500 g ai/ha): 0; Plant response rating, Barnyardgrass ([9]; 500 g ai/ha): 0; Wheat plant response rating [14]: 0; Plant response rating, Wheat [14]: 0; Pigweed plant response rating [15]: 0; Plant response rating, Pigweed [15]: 0; Blackgrass plant response rating [16]: 0; Plant response rating, Blackgrass [16]: 0; Corn plant response rating (corn (Zea mays)): 0; Plant response rating, Corn (corn (Zea mays)): 0; Foxtail, Giant plant response rating [17]: 20; Plant response rating, Foxtail, Giant [17]: 30; Barnyardgrass plant response rating [18]: 20; Plant response rating, Barnyardgrass [18]: 30"
CN1CC(c2ccc(Cl)cc2)C(C(=O)Nc2cccc(F)c2F)C1=O (stereo not drawn) [Compound 434],60,90,50,60,70,80,80,90,90,100,90,90,0,50,20,20,60,60,70,70,"Plant response rating, Ducksalad ([7]; 250 g ai/ha): 100; Plant response rating, Sedge, Umbrella ([8]; 250 g ai/ha): 0; Plant response rating, Rice (rice (Oryra sativa); 250 g ai/ha): 0; Plant response rating, Barnyardgrass ([9]; 250 g ai/ha): 70; Wheat plant response rating [14]: 20; Plant response rating, Wheat [14]: 70; Pigweed plant response rating [15]: 60; Plant response rating, Pigweed [15]: 70; Blackgrass plant response rating [16]: 50; Plant response rating, Blackgrass [16]: 50; Corn plant response rating (corn (Zea mays)): 0; Plant response rating, Corn (corn (Zea mays)): 70; Foxtail, Giant plant response rating [17]: 90; Plant response rating, Foxtail, Giant [17]: 90; Barnyardgrass plant response rating [18]: 90; Plant response rating, Barnyardgrass [18]: 90"
CN1CC(c2ccc(F)cc2)C(C(=O)Nc2cccc(F)c2F)C1=O (stereo not drawn) [Compound 438],50,70,60,90,70,80,80,90,100,100,90,100,40,60,0,30,40,50,70,70,"Plant response rating, Ducksalad ([7]; 250 g ai/ha): 100; Plant response rating, Sedge, Umbrella ([8]; 250 g ai/ha): 0; Plant response rating, Rice (rice (Oryra sativa); 250 g ai/ha): 20; Plant response rating, Barnyardgrass ([9]; 250 g ai/ha): 85; Wheat plant response rating [14]: 30; Plant response rating, Wheat [14]: 70; Pigweed plant response rating [15]: 0; Plant response rating, Pigweed [15]: 60; Blackgrass plant response rating [16]: 40; Plant response rating, Blackgrass [16]: 70; Corn plant response rating (corn (Zea mays)): 0; Plant response rating, Corn (corn (Zea mays)): 50; Foxtail, Giant plant response rating [17]: 90; Plant response rating, Foxtail, Giant [17]: 90; Barnyardgrass plant response rating [18]: 90; Plant response rating, Barnyardgrass [18]: 90"
CN1CC(c2ccc(F)cc2)C(C(=O)Nc2ccc(F)cc2F)C1=O (stereo not drawn) [Compound 440],0,50,20,40,60,70,20,80,90,100,90,100,0,60,0,0,40,40,30,40,"Plant response rating, Ducksalad ([7]; 250 g ai/ha): 95; Plant response rating, Sedge, Umbrella ([8]; 250 g ai/ha): 0; Plant response rating, Rice (rice (Oryra sativa); 250 g ai/ha): 0; Plant response rating, Barnyardgrass ([9]; 250 g ai/ha): 70; Wheat plant response rating [14]: 0; Plant response rating, Wheat [14]: 50; Pigweed plant response rating [15]: 0; Plant response rating, Pigweed [15]: 20; Blackgrass plant response rating [16]: 30; Plant response rating, Blackgrass [16]: 50; Corn plant response rating (corn (Zea mays)): 0; Plant response rating, Corn (corn (Zea mays)): 20; Foxtail, Giant plant response rating [17]: 90; Plant response rating, Foxtail, Giant [17]: 90; Barnyardgrass plant response rating [18]: 90; Plant response rating, Barnyardgrass [18]: 90"
CN1CC(c2ccc3c(c2)OC(F)(F)O3)C(C(=O)Nc2cccc(F)c2F)C1=O (stereo not drawn) [Compound 442],60,80,20,60,80,90,70,80,90,90,90,90,60,80,0,40,60,60,20,60,"Plant response rating, Ducksalad ([7]; 250 g ai/ha): 100; Plant response rating, Sedge, Umbrella ([8]; 250 g ai/ha): 0; Plant response rating, Rice (rice (Oryra sativa); 250 g ai/ha): 0; Plant response rating, Barnyardgrass ([9]; 250 g ai/ha): 75; Wheat plant response rating [14]: 40; Plant response rating, Wheat [14]: 70; Pigweed plant response rating [15]: 60; Plant response rating, Pigweed [15]: 70; Blackgrass plant response rating [16]: 60; Plant response rating, Blackgrass [16]: 70; Corn plant response rating (corn (Zea mays)): 50; Plant response rating, Corn (corn (Zea mays)): 70; Foxtail, Giant plant response rating [17]: 80; Plant response rating, Foxtail, Giant [17]: 80; Barnyardgrass plant response rating [18]: 80; Plant response rating, Barnyardgrass [18]: 90"
